Assay results as given in paper PMC5218480 (PLoS ONE, 2017).

System: MV-4-11 cells
Assay: Gene expression microarray analysis (Affymetrix PrimeView) and GSEA
Assay type: cell-based, human
Design: RFU PODN (11730768_x_at) / Fold change /veh PODN (11730768_x_at) / RFU LINC00158 (11744669_a_at) / Fold change /veh LINC00158 (11744669_a_at) / RFU DUSP10 (11751237_a_at) / Fold change /veh DUSP10 (11751237_a_at) / RFU ID3 (11757404_x_at) / Fold change /veh ID3 (11757404_x_at) / RFU PLEKHG5 (11737974_s_at) / Fold change /veh PLEKHG5 (11737974_s_at) / RFU LRRC4B (11730491_at) / Fold change /veh LRRC4B (11730491_at) / RFU GIMAP4 (11747438_a_at) / Fold change /veh GIMAP4 (11747438_a_at) / RFU KRT8 (11758183_x_at) / Fold change /veh KRT8 (11758183_x_at) / RFU CNN1 (11734310_a_at) / Fold change /veh CNN1 (11734310_a_at) / RFU VPS37D (11726825_at) / Fold change /veh VPS37D (11726825_at) / RFU C10orf10 (11716522_x_at) / Fold change /veh C10orf10 (11716522_x_at) / RFU KIR2DL2 /// KIR2DL4 /// KIR2DL5A /// KIR2DL5B /// KIR2DS1 /// KIR2DS2 /// KIR2DS3 /// KIR2DS4 /// KIR3DL3 /// KIR3DL3 /// KIR3DS1 (11738374_at) / Fold change /veh KIR2DL2 /// KIR2DL4 /// KIR2DL5A /// KIR2DL5B /// KIR2DS1 /// KIR2DS2 /// KIR2DS3 /// KIR2DS4 /// KIR3DL3 /// KIR3DL3 /// KIR3DS1 (11738374_at) / RFU C1QL1 (11718748_at) / Fold change /veh C1QL1 (11718748_at) / RFU TMPRSS4 (11747572_a_at) / Fold change /veh TMPRSS4 (11747572_a_at) / RFU HAMP (11756126_x_at) / Fold change /veh HAMP (11756126_x_at) / RFU RNFT2 (11725882_a_at) / Fold change /veh RNFT2 (11725882_a_at) / RFU NR4A2 (11747474_a_at) / Fold change /veh NR4A2 (11747474_a_at) / RFU ABCC12 (11746883_a_at) / Fold change /veh ABCC12 (11746883_a_at) / RFU TMEM136 (11760407_x_at) / Fold change /veh TMEM136 (11760407_x_at) / RFU CLDN22 /// WWC2 (11732394_at) / Fold change /veh CLDN22 /// WWC2 (11732394_at) / RFU HLA-DPB1 (11760878_x_at) / Fold change /veh HLA-DPB1 (11760878_x_at) / RFU SPINT1 (11716480_a_at) / Fold change /veh SPINT1 (11716480_a_at) / RFU GAP43 (11754022_s_at) / Fold change /veh GAP43 (11754022_s_at) / RFU A4GNT (11735810_at) / Fold change /veh A4GNT (11735810_at) / RFU PRB3 (11715151_x_at) / Fold change /veh PRB3 (11715151_x_at) / RFU TUBB4B (11761932_at) / Fold change /veh TUBB4B (11761932_at) / RFU CAPN14 (11732068_a_at) / Fold change /veh CAPN14 (11732068_a_at) / RFU TMCC2 (11721928_a_at) / Fold change /veh TMCC2 (11721928_a_at) / RFU IRGQ (11745062_a_at) / Fold change /veh IRGQ (11745062_a_at) / RFU FAM174B (11720279_a_at) / Fold change /veh FAM174B (11720279_a_at) / RFU TMPRSS4 (11748680_a_at) / Fold change /veh TMPRSS4 (11748680_a_at) / RFU FAM212B (11763350_a_at) / Fold change /veh FAM212B (11763350_a_at) / RFU PLEKHG5 (11743358_a_at) / Fold change /veh PLEKHG5 (11743358_a_at) / RFU ZSCAN30 (11745921_a_at) / Fold change /veh ZSCAN30 (11745921_a_at) / RFU CMKLR1 (11741424_a_at) / Fold change /veh CMKLR1 (11741424_a_at) / RFU LOC101060620 /// MAPK8IP1 (11723275_at) / Fold change /veh LOC101060620 /// MAPK8IP1 (11723275_at) / RFU SPTSSB (11747773_x_at) / Fold change /veh SPTSSB (11747773_x_at) / RFU PRSS12 (11739890_at) / Fold change /veh PRSS12 (11739890_at) / RFU BIN1 (11741810_x_at) / Fold change /veh BIN1 (11741810_x_at) / RFU WNT11 (11732464_a_at) / Fold change /veh WNT11 (11732464_a_at) / RFU C10orf10 (11716521_a_at) / Fold change /veh C10orf10 (11716521_a_at) / RFU C5orf56 (11738089_at) / Fold change /veh C5orf56 (11738089_at) / RFU CYB561 (11721691_x_at) / Fold change /veh CYB561 (11721691_x_at) / RFU ANKRD19P (11752326_a_at) / Fold change /veh ANKRD19P (11752326_a_at) / RFU OR2T12 /// OR2T33 /// OR2T8 (11738714_s_at) / Fold change /veh OR2T12 /// OR2T33 /// OR2T8 (11738714_s_at) / RFU VCAN (11748164_a_at) / Fold change /veh VCAN (11748164_a_at) / RFU JSRP1 (11732532_at) / Fold change /veh JSRP1 (11732532_at) / RFU KRTAP10-11 (11738290_x_at) / Fold change /veh KRTAP10-11 (11738290_x_at) / RFU MYO3A (11730013_a_at) / Fold change /veh MYO3A (11730013_a_at) / RFU EBF3 (11725865_a_at) / Fold change /veh EBF3 (11725865_a_at) / RFU CAMK2N1 (11719241_x_at) / Fold change /veh CAMK2N1 (11719241_x_at) / RFU C5orf56 (11738088_a_at) / Fold change /veh C5orf56 (11738088_a_at) / RFU OLFML3 (11715873_a_at) / Fold change /veh OLFML3 (11715873_a_at) / RFU LOC100653217 /// NTM (11731650_a_at) / Fold change /veh LOC100653217 /// NTM (11731650_a_at) / RFU MAPK11 (11762145_a_at) / Fold change /veh MAPK11 (11762145_a_at) / RFU FIZ1 (11724087_x_at) / Fold change /veh FIZ1 (11724087_x_at) / RFU OASL (11726364_x_at) / Fold change /veh OASL (11726364_x_at) / RFU SOX15 (11748057_x_at) / Fold change /veh SOX15 (11748057_x_at) / RFU CD79A (11719716_a_at) / Fold change /veh CD79A (11719716_a_at) / RFU HIST1H1D (11736915_at) / Fold change /veh HIST1H1D (11736915_at) / RFU CASKIN2 (11723855_a_at) / Fold change /veh CASKIN2 (11723855_a_at) / RFU LOC730098 (11760151_x_at) / Fold change /veh LOC730098 (11760151_x_at) / RFU OR4N2 (11742367_at) / Fold change /veh OR4N2 (11742367_at) / RFU PRRT2 (11749266_a_at) / Fold change /veh PRRT2 (11749266_a_at) / RFU SNX32 (11753110_a_at) / Fold change /veh SNX32 (11753110_a_at) / RFU CDHR5 (11726645_a_at) / Fold change /veh CDHR5 (11726645_a_at) / RFU RCAN1 (11760418_a_at) / Fold change /veh RCAN1 (11760418_a_at) / RFU FAM167A (11723789_a_at) / Fold change /veh FAM167A (11723789_a_at) / RFU FAM26E (11764081_at) / Fold change /veh FAM26E (11764081_at) / RFU ISYNA1 (11749810_s_at) / Fold change /veh ISYNA1 (11749810_s_at) / RFU ACY1 (11761880_at) / Fold change /veh ACY1 (11761880_at) / RFU 11764098_at / Fold change /veh 11764098_at / RFU SAMD14 (11745864_x_at) / Fold change /veh SAMD14 (11745864_x_at) / RFU NPB (11741838_a_at) / Fold change /veh NPB (11741838_a_at) / RFU TMPRSS6 (11731388_a_at) / Fold change /veh TMPRSS6 (11731388_a_at) / RFU KRTAP10-2 (11738614_at) / Fold change /veh KRTAP10-2 (11738614_at) / RFU ARHGAP8 /// PRR5-ARHGAP8 (11727945_x_at) / Fold change /veh ARHGAP8 /// PRR5-ARHGAP8 (11727945_x_at) / RFU KRTAP5-7 /// NADSYN1 (11734609_at) / Fold change /veh KRTAP5-7 /// NADSYN1 (11734609_at) / RFU RASL12 (11751679_a_at) / Fold change /veh RASL12 (11751679_a_at) / RFU CDKN2B (11736163_a_at) / Fold change /veh CDKN2B (11736163_a_at) / RFU PRF1 (11729649_at) / Fold change /veh PRF1 (11729649_at) / RFU, ZNF638 /// ZNF638-IT1 / Fold change vs veh, ZNF638 /// ZNF638-IT1 / RFU, PANK3 / Fold change vs veh, PANK3 / RFU, SH3YL1 / Fold change vs veh, SH3YL1 / RFU, ZEB2 / Fold change vs veh, ZEB2 / RFU, NRIP1 / Fold change vs veh, NRIP1 / RFU, PTTG1IP / Fold change vs veh, PTTG1IP / RFU, CAPN2 / Fold change vs veh, CAPN2 / RFU, MED14 / Fold change vs veh, MED14 / RFU, SNORA58 / Fold change vs veh, SNORA58 / RFU, C1orf63 / Fold change vs veh, C1orf63 / RFU, LRRFIP1 / Fold change vs veh, LRRFIP1 / RFU, NDUFAF7 / Fold change vs veh, NDUFAF7 / RFU, SLC12A2 / Fold change vs veh, SLC12A2 / RFU, IBTK / Fold change vs veh, IBTK / RFU, ESF1 / Fold change vs veh, ESF1 / Fold change vs veh, TMEM50B / RFU, TAOK1 / Fold change vs veh, TAOK1 / RFU, ACBD3 / Fold change vs veh, ACBD3 / RFU, TMA16 / Fold change vs veh, TMA16 / RFU, RWDD3 / Fold change vs veh, RWDD3 / RFU, BCAT1 / Fold change vs veh, BCAT1 / RFU, EDEM3 / Fold change vs veh, EDEM3 / RFU, TMEM33 / Fold change vs veh, TMEM33 / RFU, WDR75 / Fold change vs veh, WDR75 / RFU, AHCTF1 / Fold change vs veh, AHCTF1 / RFU, TFRC / Fold change vs veh, TFRC / RFU, ZDHHC17 / Fold change vs veh, ZDHHC17 / RFU, NOM1 / Fold change vs veh, NOM1 / RFU, ARL8B / Fold change vs veh, ARL8B / RFU, ZBTB11 / Fold change vs veh, ZBTB11 / RFU, TAMM41 / Fold change vs veh, TAMM41 / RFU, KIAA1704 /// LOC100996395 / Fold change vs veh, KIAA1704 /// LOC100996395 / RFU, ING1 / Fold change vs veh, ING1 / RFU, TRMT61B / Fold change vs veh, TRMT61B / RFU, FUBP3 / Fold change vs veh, FUBP3 / RFU, TP53 / Fold change vs veh, TP53 / RFU, TNKS2 / Fold change vs veh, TNKS2 / RFU, ZFP14 / Fold change vs veh, ZFP14 / RFU, ACTR2 / Fold change vs veh, ACTR2 / RFU, PPP3R1 / Fold change vs veh, PPP3R1 / RFU, PIK3R1 / Fold change vs veh, PIK3R1 / RFU, HNRNPA1 / Fold change vs veh, HNRNPA1 / RFU, RNF170 / Fold change vs veh, RNF170 / RFU, ZNF28 / Fold change vs veh, ZNF28 / RFU, RNGTT / Fold change vs veh, RNGTT / RFU, OGT / Fold change vs veh, OGT / RFU, BRD1 / Fold change vs veh, BRD1 / RFU, MARS / Fold change vs veh, MARS / RFU, ZNF655 / Fold change vs veh, ZNF655 / RFU, FAHD1 / Fold change vs veh, FAHD1 / RFU, BDP1 / Fold change vs veh, BDP1 / RFU, LRRCC1 / Fold change vs veh, LRRCC1 / RFU, ARID1A / Fold change vs veh, ARID1A / RFU, ZNF146 / Fold change vs veh, ZNF146 / RFU, ZNF330 / Fold change vs veh, ZNF330 / RFU, GPN3 / Fold change vs veh, GPN3 / RFU, C9orf123 / Fold change vs veh, C9orf123 / RFU, N4BP2L2 / Fold change vs veh, N4BP2L2 / RFU, ARFIP1 / Fold change vs veh, ARFIP1 / RFU, FAM179B / Fold change vs veh, FAM179B / RFU, BCL10 / Fold change vs veh, BCL10 / RFU, UHRF1BP1L / Fold change vs veh, UHRF1BP1L / RFU, BET1 / Fold change vs veh, BET1 / RFU, CNOT2 / Fold change vs veh, CNOT2 / RFU, ZNF268 / Fold change vs veh, ZNF268 / Fold change vs veh, ZNF507 / RFU, DGCR2 / Fold change vs veh, DGCR2 / RFU, WDSUB1 / Fold change vs veh, WDSUB1 / Fold change vs veh, HSP90B1 /// MIR3652 / RFU, ADSS / Fold change vs veh, ADSS / RFU, GK / Fold change vs veh, GK / RFU, ZNF148 / Fold change vs veh, ZNF148 / RFU, TAF9 / Fold change vs veh, TAF9 / RFU, SLC1A5 / Fold change vs veh, SLC1A5 / RFU, SLMO2 / Fold change vs veh, SLMO2 / RFU, ABCC4 / Fold change vs veh, ABCC4 / RFU, LOC101060439 /// RAP1B / Fold change vs veh, LOC101060439 /// RAP1B / RFU, RFX7 / Fold change vs veh, RFX7 / RFU, GTPBP10 / Fold change vs veh, GTPBP10 / RFU, CNEP1R1 / Fold change vs veh, CNEP1R1 / RFU, BIVM-ERCC5 /// ERCC5 / Fold change vs veh, BIVM-ERCC5 /// ERCC5 / RFU, ILF3 / Fold change vs veh, ILF3 / RFU 11762660_at / Fold change /veh 11762660_at / RFU VCAN (11757783_s_at) / Fold change /veh VCAN (11757783_s_at) / RFU DDX43 (11728927_at) / Fold change /veh DDX43 (11728927_at) / RFU KRT8 (11758188_x_at) / Fold change /veh KRT8 (11758188_x_at) / RFU NKD1 (11759106_at) / Fold change /veh NKD1 (11759106_at) / RFU SRD5A1 (11742802_a_at) / Fold change /veh SRD5A1 (11742802_a_at) / RFU TPSAB1 /// TPSB2 (11721975_s_at) / Fold change /veh TPSAB1 /// TPSB2 (11721975_s_at) / RFU GSTM3 (11746129_a_at) / Fold change /veh GSTM3 (11746129_a_at) / RFU IL23R (11737362_x_at) / Fold change /veh IL23R (11737362_x_at) / RFU TMEM51 (11727254_a_at) / Fold change /veh TMEM51 (11727254_a_at) / RFU PIWIL2 (11732686_x_at) / Fold change /veh PIWIL2 (11732686_x_at) / RFU ORM1 (11744905_x_at) / Fold change /veh ORM1 (11744905_x_at) / RFU CCDC152 (11743942_at) / Fold change /veh CCDC152 (11743942_at) / RFU ECM1 (11717891_a_at) / Fold change /veh ECM1 (11717891_a_at) / RFU IL23R (11748794_a_at) / Fold change /veh IL23R (11748794_a_at) / RFU TNFAIP8L3 (11732012_x_at) / Fold change /veh TNFAIP8L3 (11732012_x_at) / RFU MBOAT4 (11741988_at) / Fold change /veh MBOAT4 (11741988_at) / RFU 11764193_at / Fold change /veh 11764193_at / RFU TMEM53 (11763286_at) / Fold change /veh TMEM53 (11763286_at) / RFU MAGEB2 (11727129_at) / Fold change /veh MAGEB2 (11727129_at) / RFU TMEM200A (11744735_a_at) / Fold change /veh TMEM200A (11744735_a_at) / RFU CCDC152 (11751479_a_at) / Fold change /veh CCDC152 (11751479_a_at) / RFU FAM211A (11726209_a_at) / Fold change /veh FAM211A (11726209_a_at) / RFU RGS16 (11746705_a_at) / Fold change /veh RGS16 (11746705_a_at) / RFU VCAN (11755009_s_at) / Fold change /veh VCAN (11755009_s_at) / RFU RHOB (11743442_s_at) / Fold change /veh RHOB (11743442_s_at) / RFU RGS16 (11720943_a_at) / Fold change /veh RGS16 (11720943_a_at) / RFU RGS16 (11720944_at) / Fold change /veh RGS16 (11720944_at) / RFU, VPS4B / Fold change vs veh, VPS4B / RFU, CREB1 / Fold change vs veh, CREB1 / RFU, DNAJC13 / Fold change vs veh, DNAJC13 / RFU, GNAQ / Fold change vs veh, GNAQ / RFU, CDK5R1 / Fold change vs veh, CDK5R1 / RFU, ZRANB3 / Fold change vs veh, ZRANB3 / RFU, CUL4A / Fold change vs veh, CUL4A / RFU, CCNY / Fold change vs veh, CCNY / RFU, UFL1 / Fold change vs veh, UFL1 / RFU, COG3 / Fold change vs veh, COG3 / RFU, DIAPH2 / Fold change vs veh, DIAPH2 / RFU, SKA2 / Fold change vs veh, SKA2 / RFU, AFF3 / Fold change vs veh, AFF3 / RFU, LMF1 / Fold change vs veh, LMF1 / RFU, IPO11 / Fold change vs veh, IPO11 / RFU, DFFB / Fold change vs veh, DFFB / RFU, FOXP1 / Fold change vs veh, FOXP1 / RFU, CARD8 / Fold change vs veh, CARD8 / RFU, STRN3 / Fold change vs veh, STRN3 / RFU, ADK / Fold change vs veh, ADK / RFU, RASSF2 / Fold change vs veh, RASSF2 / RFU, WIPF1 / Fold change vs veh, WIPF1 / RFU, LARP1B / Fold change vs veh, LARP1B / RFU, RASA1 / Fold change vs veh, RASA1 / RFU, RB1 / Fold change vs veh, RB1 / RFU, PPFIA1 / Fold change vs veh, PPFIA1 / RFU, MAT2A / Fold change vs veh, MAT2A / RFU, CCT5 / Fold change vs veh, CCT5 / RFU, WDR92 / Fold change vs veh, WDR92 / RFU, CUX1 / Fold change vs veh, CUX1 / RFU, TTC7A / Fold change vs veh, TTC7A / RFU, TMEM135 / Fold change vs veh, TMEM135 / RFU, DEPTOR / Fold change vs veh, DEPTOR / RFU, CPM / Fold change vs veh, CPM / RFU, DNAJB6 / Fold change vs veh, DNAJB6 / RFU, CACNA2D3 / Fold change vs veh, CACNA2D3 / RFU, DTX4 / Fold change vs veh, DTX4 / RFU, TFCP2 / Fold change vs veh, TFCP2 / RFU, GMCL1 /// GMCL1P1 / Fold change vs veh, GMCL1 /// GMCL1P1 / RFU, AEBP2 / Fold change vs veh, AEBP2 / RFU, SNHG1 /// SNORD22 /// SNORD25 /// SNORD26 /// SNORD27 /// SNORD28 /// SNORD29 /// SNORD31 / Fold change vs veh, SNHG1 /// SNORD22 /// SNORD25 /// SNORD26 /// SNORD27 /// SNORD28 /// SNORD29 /// SNORD31 / Fold change (Aza/veh), C12orf56 (ProbeSet 11735607_a_at) / Fold change (ACY-1035/veh), C12orf56 (ProbeSet 11735607_a_at) / Fold change (Aza/veh), FGFR1OP (ProbeSet 11751329_s_at) / Fold change (ACY-1035/veh), FGFR1OP (ProbeSet 11751329_s_at) / Fold change (Aza/veh), VPS36 (ProbeSet 11739960_a_at) / Fold change (ACY-1035/veh), VPS36 (ProbeSet 11739960_a_at) / RFU SYPL1 (11715823_x_at) / Fold change /veh SYPL1 (11715823_x_at) / RFU IGFBP7 (11715501_s_at) / Fold change /veh IGFBP7 (11715501_s_at) / RFU REEP3 (11722064_at) / Fold change /veh REEP3 (11722064_at) / RFU IGLL1 (11728026_x_at) / Fold change /veh IGLL1 (11728026_x_at): dose or concentration left out as unconfirmed
Details: MV-4-11 cells, 48 hours

For `Nc1ccc(-c2cccs2)cc1NC(=O)c1ccc2c(c1)cc(C1CC1)n2CCN1CCOCC1` [ACY-1035], the “RFU TMEM136 (11760407_x_at)” value was 15.13 RFU.
